Measurements published in patent US8138158B2, “Compositions and methods for therapy for diseases characterized by defective chloride transport” (Children's Hospital & Research Center at Oakland, priority 1997, dated 2012).

Columns and labels:
[1] = tested on: nasal potential difference; experiment: Nasal potential difference measurement in a human volunteer (Knowles protocol); assay type: in vivo; settings: L-ascorbic acid 100 μM in luminal perfusate; amiloride, chloride-free solution
Protocol: In vivo, chloride secretion may be assessed using measurements of nasal potential differences in a mammal, such as a human or a mouse. […] The nasal potential difference is measured as the electrical potential measured on the nasal mucosa with respect to a skin electrode placed on a slightly scratched skin part (see Alton et al., Eur. Respir. J. 3:922-926, 1990) or with respect to a subcutaneous needle (see Knowles et al., Hum. Gene Therapy 6:445-455, 1995). Nasal potential difference is evaluated in the presence and absence of test compound, and those compounds that results in a statistically significant increase in nasal potential difference stimulate chloride transport.
The effect of quercetin on nasal potential difference (PD) measurement in a healthy human volunteer was measured as described by Knowles et al., Hum. Gene Therapy 6:445-455, 1995.
Nasal potential difference measurement was performed on a human volunteer according to a protocol by Knowles et al., Hum. Gene Therapy 6:445-455, 1995. Addition of L-ascorbic acid (100 μM) to the luminal perfusate in the nose (in the presence of amiloride (blocks Na currents) and in chloride-free solution) hyperpolarized nasal potential difference (PD) by 6.3 mV (FIG. 17). […] Stimulation was reversed by washing out drugs with NaCl Ringer solution.

[2] = tested on: intracellular cAMP levels; experiment: Cyclic AMP measurements in Calu-3 cells (competitive immunoassay); assay type: cell-based, human
Protocol: Cyclic AMP measurements. […] Cellular cAMP levels were measured in non-acetylated samples using a competitive immunoassay for cAMP (R&D systems, Minneapolis, Minn.). The regulatory role of vitamin C on Cl ion channel activity was studied in Calu-3 airway cells which express large amounts of native CFTR as their major Cl conductance ([…]., Widdicombe, J. H. & Wine, J. J. (1994) Am. J. Physiol. 266, […]-[…]). […] Details of the single channel recording are illustrated in FIG. 20C. […] At negative potentials no channel openings were resolved indicating Cl-over-gluconate selectivity. Cyclic AMP is the major intracellular messenger for the activation of CFTR. We tested the possibility that L-ascorbic acid increased intracellular cAMP levels [cAMP], by either turning on cAMP production or preventing cAMP degradation. FIG. 20E compares whole cell cAMP levels of Calu-3 cells challenged with either increasing concentrations of L-ascorbic acid or the cAMP agonist forskolin.

[3] = tested on: wildtype CFTR-corrected CF15 monolayers; experiment: Short-circuit current across wildtype CFTR-corrected CF15 monolayers; assay type: cell-based, human
Protocol: Human airway cell culture. The human submucosal serous gland-like cell line Calu-3, the CF nasal epithelial cell line homozygous for ΔF508 CFTR (CF15) and human tracheal primary cultures (hTE) were cultured as described (Jefferson, D. M., Valentich, J. D., Marini, F. C., Grubman, S. A., Iannuzzi, M. C., Dorkin, H. L., Li, M., Klinger, K. W. & Welsh, M. J. (1990) Am. J. Physiol. 259, L496-L505. Sachs, L. A., Finkbeiner, W. E. & Widdicombe, J. H. (2003) In Vitro Cell Dev. Biol. Anim. 39, 56-62.). Wildtype CFTR-corrected CF15 cells were generated via adenovirus-mediated gene transfer. Growth media were nominally free of ascorbic acid (<10 μm, University Pathology Inc., Salt Lake City, Utah). For transepithelial measurements cells were grown on permeable filter inserts and used after 3 to 10 days.
Short-circuit current measurement. Calu-3 or CF15 cells were grown as monolayers, mounted in Ussing chambers and short-circuit current (ISC) was recorded as described (Illek, B. & Fischer, H. (1998) Am. J. Physiol. 275, L902-L910). At 20-50 second intervals, transepithelial voltage was clamped from zero to 2 mV and the transepithelial resistance (Rte) was calculated. A serosa-to-mucosa-directed Cl gradient was applied. Serosal Ussing chamber solution contained (in mM): 120 NaCl, 20 NaHCO3, 5 KHCO3, 1.2 NaH2PO4, 5.6 glucose, 2.5 CaCl2, 1.2 MgCl2. In mucosal Ussing chamber solutions, all Cl salts were exchanged for gluconate salts.
The CF15 cell line was used to determine whether ascorbate-stimulated Cl currents were solely mediated by the CFTR Cl conductance. The CF15 cell line is characterized by the absence of functional CFTR in the apical plasma membrane but the presence of other non-CFTR Cl conductances (Jefferson, D. M., Valentich, J. D., Marini, F. C., Grubman, S. A., Iannuzzi, M. C., Dorkin, H. L., Li, M., Klinger, K. W. & Welsh, M. J. (1990) Am. J. Physiol. 259, L496-L505). A concentration of L-ascorbic acid that lay within the upper plateau of the dose response curve (500 μm) was applied and ascorbate-stimulated Cl currents in CF15 vs. wildtype CFTR-corrected CF15 monolayers was compared (FIG. 23A). […] The defective response to L-ascorbic acid was reversed in wildtype CFTR-corrected CF15 epithelia such that ISC responded promptly to L-ascorbic acid (ΔISC=7.5±0.5 μA/cm^2, n=6). The ascorbate-stimulated current was further activated by the cAMP agonist forskolin and total stimulated ISC averaged 12.1±1.1 μA/cm^2 (FIG. 4B). The ascorbate-stimulated Cl current reached 60±15% of the forskolin-stimulated current in CFTR-corrected CF15 monolayers, which was close to the corresponding findings in Calu-3 monolayers (68%, see FIG. 21A). The absence of ascorbate-stimulated Cl currents in CF15 monolayers supports the notion that non-CFTR Cl conductances were not activated by L-ascorbic acid.
In this example, chloride currents stimulated by L-ascorbate or D-ascorbate were measured in CF15 versus. wildtype CFTR-corrected CF15 monolayers. A concentration of L-ascorbate (1 mM) or D-isoascorbate (300 μm) that lay within the upper plateau of the dose-response curve was applied to cells and the resulting chloride currents stimulated in CF15 versus wildtype CFTR-corrected CF15 monolayers were measured (FIG. 25 A-H). All experiments were performed in the presence of the sodium channel blocker amiloride. […]

O=C1O[C@H](C(O)CO)C(O)=C1O (stereo partly drawn) [L-ascorbic acid, L-xyloascorbic acid]
hyperpolarized nasal potential difference (PD) by [1]: 6.3 mV | cAMP level stimulated by 100 nM forskolin ([2]; 300 μM L-ascorbate + 100 nM forskolin): did not alter the elevated cAMP level | resting intracellular cAMP level ([2]; L-ascorbate from 100 μM to 10 mM, 15 min): did not result in a detectable increase | ascorbate-stimulated Cl current, % of the forskolin-stimulated current [3]: 60±15% | ΔIsc ([3]; L-ascorbate 1 mM, amiloride, n=6): 7.5±0.5 μA/cm2 | ΔISC ([3]; L-ascorbic acid 500 μm, n=6): 7.5±0.5 μA/cm^2
